# Measured values taken from patent US9302012B2, “Anti-bacterial siderophore-aminopenicillin conjugates” (University of Notre Dame Du Lac, priority 2012, dated 2016).
# Test system: collection of strains of P. aeruginosa
# Test: Agar well diffusion test (several strains)
# Assay type: cell-based, Pseudomonas aeruginosa
# Conditions: control samples
# Experimental: Conjugates 10 and 11 were first evaluated for their antibacterial ability against a collection of strains of P. aeruginosa using the agar well diffusion test. The influence of iron concentration on antibacterial activity was probed as well by conducting assays in iron-rich and iron-deficient media.
# All liquids and media were sterilized by autoclaving (121° C., 15 min) before use. All aqueous solutions and media were prepared using distilled, deionized, and filtered water (Millipore Milli-Q Advantage A10 Water Purification System). Luria broth (LB) was purchased from VWR. Mueller-Hinton No. 2 broth (MHII broth; cation adjusted) was purchased from Sigma-Aldrich (St. Louis, Mo.). Iron-deficient (—Fe) MHII broth was prepared by adding 0.8 mL of a 1 mg/mL sterile aq. solution of 2,2′-bipyridine to 49.2 mL of MHII broth. Iron-rich (+Fe) MHII broth was prepared by adding 0.8 mL of a 1 mg/mL sterile aq. solution of FeCl3 to 49.2 mL of MHII broth. Mueller-Hinton No. 2 agar (MHII agar; HiMedia Laboratories) was purchased from VWR. Iron-deficient (−Fe) MHII agar was prepared by adding 0.5 mL of a 1 mg/mL sterile aq. solution of 2,2′-bipyridine to 34 mL of melted MHII agar with gentle mixing. Iron-rich (+Fe) MHII agar was prepared by adding 0.5 mL of a 1 mg/mL sterile aq. solution of FeCl3 to 34 mL of melted MHII agar with gentle mixing. See also Wencewicz, T. A. Dissertation, University of Notre Dame, Notre Dame, Ind., 2011, for relevant techniques.
# Antibacterial Susceptibility Testing by the Agar Diffusion Assay.
# Antibacterial activity of the compounds was determined by a modified Kirby-Bauer agar diffusion assay. Overnight cultures of test organisms were grown in LB broth for 18-24 h and standard suspensions of […] were prepared in saline solution (0.9% NaCl) according to a 0.5 BaSO4 McFarland Standard. This standardized suspension (0.1 mL) was added to 34 mL of sterile, melted agar (−Fe or +Fe) tempered to 47-50° C. After gentle mixing, the inoculated agar media was poured into a sterile plastic petri dish (145 mm×20 mm) and allowed to solidify near a flame with the lid ajar for about 30 min. Wells of 9.0 mm diameter were cut from the petri dish agar and filled with exactly 50 μL of the test sample solution. The petri dish was incubated at 37° C. for 18-24 h and the inhibition zone diameters were measured (mm) with an electronic caliper after 24 h.
row,Structure (SMILES),inhibitory effect in the agar well diffusion test
1,CC(=O)Oc1cccc(C(=O)NCCCC(CCCNC(=O)c2cccc(OC(C)=O)c2OC(C)=O)(CCCNC(=O)c2cccc(OC(C)=O)c2OC(C)=O)NC(=O)CCC(=O)O)c1OC(C)=O [Compound 9],did not show any inhibitory effect
2,CC(=O)Oc1cccc(C(=O)NCCCC(CCCNC(=O)c2cccc(OC(C)=O)c2OC(C)=O)(CCCNC(=O)c2cccc(OC(C)=O)c2OC(C)=O)NC(=O)CCC(=O)N[C@@H](C(N)=O)c2ccccc2)c1OC(C)=O [Compound S1],did not show any inhibitory effect
